Among the data in patent US9458110B2, “Phenylpyrazole derivatives as potent ROCK1 and ROCK2 inhibitors” (BRISTOL-MYERS SQUIBB COMPANY, priority 2013, dated 2016) are IC50 values, retold here.

The structures appear in SMILES notation. Some results are limits rather than exact numbers.

In one assay the target is ROCK1 (Homo sapiens (Human), UniProt Q13464). As to the kind of experiment: ROCK assay (Caliper LABCHIP peptide phosphorylation), ROCK1.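 Note: Read-out is separation of phosphorylated from unphosphorylated peptide, with kinase activity inhibition computed at every concentration of a dose-response series.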 In kind it is biochemical. To be noted: 5 μM ATP, 1.5 μM peptide substrate.
Sequence of ROCK1 (Q13464 whole entry, species assumed): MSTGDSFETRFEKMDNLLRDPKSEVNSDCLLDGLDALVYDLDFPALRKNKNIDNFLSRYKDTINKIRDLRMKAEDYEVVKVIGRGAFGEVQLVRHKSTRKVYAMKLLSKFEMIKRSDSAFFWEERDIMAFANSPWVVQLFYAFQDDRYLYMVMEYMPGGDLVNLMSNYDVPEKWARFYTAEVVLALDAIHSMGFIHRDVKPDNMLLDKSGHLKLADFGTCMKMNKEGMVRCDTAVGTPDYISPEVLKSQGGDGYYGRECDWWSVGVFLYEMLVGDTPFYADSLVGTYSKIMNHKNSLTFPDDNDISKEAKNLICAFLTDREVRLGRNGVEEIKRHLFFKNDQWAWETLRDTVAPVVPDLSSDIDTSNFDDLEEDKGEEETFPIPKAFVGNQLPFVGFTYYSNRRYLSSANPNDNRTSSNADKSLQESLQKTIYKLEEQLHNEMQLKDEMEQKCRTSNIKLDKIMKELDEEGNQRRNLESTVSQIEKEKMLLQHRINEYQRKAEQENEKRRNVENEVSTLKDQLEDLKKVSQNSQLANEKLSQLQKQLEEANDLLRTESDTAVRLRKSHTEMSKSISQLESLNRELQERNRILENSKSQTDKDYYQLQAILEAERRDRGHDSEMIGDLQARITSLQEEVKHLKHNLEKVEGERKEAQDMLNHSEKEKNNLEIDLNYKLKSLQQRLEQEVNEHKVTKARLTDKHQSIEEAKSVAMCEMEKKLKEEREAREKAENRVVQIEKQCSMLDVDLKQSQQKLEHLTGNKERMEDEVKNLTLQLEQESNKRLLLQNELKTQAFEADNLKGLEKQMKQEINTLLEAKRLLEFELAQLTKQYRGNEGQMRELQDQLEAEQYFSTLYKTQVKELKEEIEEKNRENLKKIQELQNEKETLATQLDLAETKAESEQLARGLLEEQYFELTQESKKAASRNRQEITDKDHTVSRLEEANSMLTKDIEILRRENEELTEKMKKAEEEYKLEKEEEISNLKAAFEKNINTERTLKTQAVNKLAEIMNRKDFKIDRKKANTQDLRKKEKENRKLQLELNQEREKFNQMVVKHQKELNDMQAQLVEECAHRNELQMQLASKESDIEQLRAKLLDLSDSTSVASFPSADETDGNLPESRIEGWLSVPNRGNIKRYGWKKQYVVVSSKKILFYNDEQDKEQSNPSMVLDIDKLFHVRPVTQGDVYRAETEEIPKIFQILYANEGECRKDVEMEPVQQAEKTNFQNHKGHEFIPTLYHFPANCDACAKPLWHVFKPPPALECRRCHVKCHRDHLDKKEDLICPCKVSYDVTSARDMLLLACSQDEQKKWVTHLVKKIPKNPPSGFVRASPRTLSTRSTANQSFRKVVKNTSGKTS
A further assay has as its target ROCK2 (Homo sapiens (Human), UniProt O75116). Briefly: ROCK assay (Caliper LABCHIP peptide phosphorylation), ROCK2.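 Note: reaction stopped with EDTA, then phosphorylated and unphosphorylated peptide resolved by microfluidic electrophoresis, kinase inhibition computed at each compound concentration in dose-response series, DMSO under 2%.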 To be noted: 5 μM ATP, 1.5 μM peptide substrate. In kind it is biochemical.

Sequence of ROCK2 (O75116 whole entry, species assumed): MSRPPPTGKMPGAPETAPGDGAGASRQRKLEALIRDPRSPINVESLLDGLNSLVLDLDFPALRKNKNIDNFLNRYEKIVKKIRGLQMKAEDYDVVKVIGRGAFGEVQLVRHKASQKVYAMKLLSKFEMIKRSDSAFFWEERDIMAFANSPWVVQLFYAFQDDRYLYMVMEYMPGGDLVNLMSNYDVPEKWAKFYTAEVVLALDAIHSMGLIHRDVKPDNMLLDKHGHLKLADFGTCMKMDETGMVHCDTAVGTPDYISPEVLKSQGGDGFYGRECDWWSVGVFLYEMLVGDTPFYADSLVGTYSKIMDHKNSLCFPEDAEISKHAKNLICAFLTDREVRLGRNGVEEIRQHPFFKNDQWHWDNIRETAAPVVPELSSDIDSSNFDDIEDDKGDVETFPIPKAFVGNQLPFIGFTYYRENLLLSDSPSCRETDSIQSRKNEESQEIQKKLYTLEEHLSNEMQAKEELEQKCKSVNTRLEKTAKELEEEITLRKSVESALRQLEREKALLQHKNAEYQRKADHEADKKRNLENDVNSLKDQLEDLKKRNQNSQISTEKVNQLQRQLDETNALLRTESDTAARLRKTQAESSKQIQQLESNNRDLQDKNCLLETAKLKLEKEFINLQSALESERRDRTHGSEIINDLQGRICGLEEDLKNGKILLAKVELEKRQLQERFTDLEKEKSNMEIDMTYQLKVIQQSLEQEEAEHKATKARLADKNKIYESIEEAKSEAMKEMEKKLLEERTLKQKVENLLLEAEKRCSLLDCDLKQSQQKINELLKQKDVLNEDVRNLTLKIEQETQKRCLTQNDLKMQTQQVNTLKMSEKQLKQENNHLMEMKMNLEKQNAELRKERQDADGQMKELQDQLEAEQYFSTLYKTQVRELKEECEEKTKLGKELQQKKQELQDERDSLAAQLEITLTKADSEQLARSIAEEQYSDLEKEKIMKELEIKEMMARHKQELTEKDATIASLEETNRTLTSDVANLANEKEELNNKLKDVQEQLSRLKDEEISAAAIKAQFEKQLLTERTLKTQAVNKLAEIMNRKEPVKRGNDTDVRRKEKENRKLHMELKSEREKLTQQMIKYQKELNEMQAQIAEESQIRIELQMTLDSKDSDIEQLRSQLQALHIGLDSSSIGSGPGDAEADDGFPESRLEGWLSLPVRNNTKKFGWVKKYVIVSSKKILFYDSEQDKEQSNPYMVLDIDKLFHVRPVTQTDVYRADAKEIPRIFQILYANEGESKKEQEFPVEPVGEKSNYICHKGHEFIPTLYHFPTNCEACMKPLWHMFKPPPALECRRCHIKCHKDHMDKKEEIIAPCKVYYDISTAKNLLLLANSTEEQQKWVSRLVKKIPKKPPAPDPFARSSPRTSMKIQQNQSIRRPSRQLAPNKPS

Consider `COc1cc(C(=O)N[C@@H](C)c2ccccc2Cl)ccc1-c1cn[nH]c1` [Example 44, (S)-N-(1-(2-chlorophenyl)ethyl)-3-methoxy-4-(1H-pyrazol-4-yl)benzamide], for which the IC50 on ROCK1 stood at 96.1 nM; against ROCK2, 52.5 nM.

As to `CC(O)c1cc(C(=O)N[C@H](C)c2ccccc2F)ccc1-c1cn[nH]c1` (stereo partly drawn) [Example 282, N-[(1R)-1-(2-fluorophenyl)ethyl]-3-(1-hydroxyethyl)-4-(1H-pyrazol-4-yl)benzamide], the IC50 against ROCK1 turned out to be 242 nM; on ROCK2, 336 nM.

Regarding `CC(O)c1cc(C(=O)N[C@H](C)c2ccccc2)ccc1-c1cn[nH]c1` (stereo partly drawn) [Example 280, 3-(1-hydroxyethyl)-N-[(1R)-1-phenylethyl]-4-(1H-pyrazol-4-yl)benzamide], the results for the IC50 on ROCK1 and on ROCK2 were above 2000 nM and 443 nM, respectively.

On to `Cc1cc(C(=O)N[C@H](CN)c2ccccc2)ccc1-c1cn[nH]c1` [Example 256, N-[(15)-2-amino-1-phenylethyl]-3-methyl-4-(1H-pyrazol-4-yl)benzamide], for which the values for the 50% inhibitory concentration (IC50) on ROCK1 and against ROCK2 were 3.38 nM and 0.72 nM, respectively.

For the compound `COc1cc(C(=O)NCc2csc(-c3ccccc3)n2)ccc1-c1cn[nH]c1` [Example 9, 3-methoxy-N-((2-phenylthiazol-4-yl)methyl)-4-(1H-pyrazol-4-yl)benzamide], the half-inhibitory concentration (IC50) is 155 nM against ROCK1 and 61.9 nM against ROCK2.

On to `COc1cc(C(=O)NC[C@H](O)c2ccccc2)ccc1-c1cn[nH]c1` [Example 130, N-[(2R)-2-hydroxy-2-phenylethyl]-3-methoxy-4-(1H-pyrazol-4-yl)benzamide], for which the figures for the 50% inhibitory concentration (IC50) on ROCK1 and against ROCK2 were 53.7 nM and 33.4 nM, respectively.

Turning to `CCc1ccccc1CNC(=O)c1ccc(-c2cn[nH]c2)c(OC)c1` [Example 180, N-[(2-ethylphenyl)methyl]-3-methoxy-4-(1H-pyrazol-4-yl)benzamide], the IC50 on ROCK1 is 36.4 nM; against ROCK2, 15.3 nM.

Take `COc1cc(-c2cn[nH]c2)ccc1C(=O)N[C@H](CO)[C@H](O)c1ccccc1` [Example 215, N-[(1R,2R)-1,3-dihydroxy-1-phenylpropan-2-yl]-2-methoxy-4-(1H-pyrazol-4-yl)benzamide]: the IC50 on ROCK1 stood at 64.2 nM; at ROCK2, 23.4 nM.

In the case of `COc1cc(-c2cn[nH]c2)ccc1C(=O)NC(C)c1c(F)cccc1F` (stereo not shown) [Example 226, N-[1-(2,6-difluorophenyl)ethyl]-2-methoxy-4-(1H-pyrazol-4-yl)benzamide], the IC50 on ROCK1 worked out at 26.5 nM; at ROCK2, 5.13 nM.

Regarding `COc1cc(-c2c[nH]nc2C)ccc1C(=O)NCc1c(F)cccc1Cl` [Example 184, N-[(2-chloro-6-fluorophenyl)methyl]-2-methoxy-4-(3-methyl-1H-pyrazol-4-yl)benzamide], the IC50 on ROCK1 was 14.2 nM; against ROCK2, 101 nM.

Regarding `C[C@@H](NC(=O)c1ccc(-c2cn[nH]c2)c(OCC(C)(C)O)c1)c1ccccc1` [Example 154, 3-(2-hydroxy-2-methylpropoxy)-N-[(1R)-1-phenylethyl]-4-(1H-pyrazol-4-yl)benzamide], the values for the IC50 against ROCK1 and at ROCK2 were 1790 nM and 452 nM, respectively.

In the case of `COc1cc(C(=O)NCc2cccc(OC(F)F)c2)ccc1-c1cn[nH]c1` [Example 78, N-(3-(difluoro-methoxy)benzyl)-3-methoxy-4-(1H-pyrazol-4-yl)benzamide], the results for the IC50 on ROCK1 and against ROCK2 were 21.8 nM and 3.94 nM, respectively.

As for `COc1cc(C(=O)NC(CCN(C)C)c2ccccc2)ccc1-c1cn[nH]c1` (stereo not shown) [Example 178, N-[3-(dimethylamino)-1-phenylpropyl]-3-methoxy-4-(1H-pyrazol-4-yl)benzamide], the figures for the IC50 at ROCK1 and against ROCK2 were 94.2 nM and 31.9 nM, respectively.

On to `COc1cc(C(=O)NCc2cccc(C(F)(F)F)c2)ccc1-c1cn[nH]c1` [Example 32, 3-methoxy-4-(1H-pyrazol-4-yl)-N-(3-(trifluoro-methyl)benzyl) benzamide], for which the IC50 is 43.3 nM against ROCK1 and 11.5 nM against ROCK2.

Regarding `Cc1cc(C(=O)NCc2cccc(C(=O)NCC3CC3)c2)ccc1-c1cn[nH]c1` [Example 243, N-({3-[(cyclopropyl-methyl)carbamoyl]phenyl}methyl)-3-methyl-4-(1H-pyrazol-4-yl)benzamide], the 50% inhibitory concentration (IC50) against ROCK1 came out at 3.38 nM; on ROCK2, 0.5 nM.

With `COc1cc(-c2cn[nH]c2)ccc1C(=O)NC(CCN(C)C)c1ccccc1` (stereo not shown) [Example 208, N-[3-(dimethylamino)-1-phenylpropyl]-2-methoxy-4-(1H-pyrazol-4-yl)benzamide], the 50% inhibitory concentration (IC50) against ROCK1 came to 174 nM; at ROCK2 it was 15.2 nM.

As to `COc1cccc([C@@H](C)NC(=O)c2ccc(-c3cn[nH]c3)cc2OCCN(C)C)c1` [Example 308, 2-[2-(Dimethylamino)ethoxy]-N-[(1R)-1-(3-methoxyphenyl)ethyl]-4-(1H-pyrazol-4-yl)benzamide], the half-inhibitory concentration (IC50) against ROCK1 was 284 nM; against ROCK2, 37.5 nM.

As to `COc1cc(C(=O)N(C)CCc2ccccc2)ccc1-c1cn[nH]c1` [Example 70, 3-methoxy-N-methyl-N-phenethyl-4-(1H-pyrazol-4-yl)benzamide], the IC50 is 379 nM against ROCK1 and 164 nM at ROCK2.

Turning to `COc1cc(C(=O)N[C@H](CNS(=O)(=O)C2CC2)c2ccccc2)ccc1-c1cn[nH]c1` [Example 261, N-[(1S)-2-cyclopropane-sulfonamido-1-phenylethyl]-3-methoxy-4-(1H-pyrazol-4-yl)benzamide], the half-maximal inhibitory concentration (IC50) against ROCK1 was 11.3 nM; at ROCK2, 2.89 nM.

Regarding `N#Cc1cc(C(=O)N[C@H](CO)c2c(F)cccc2F)ccc1-c1cn[nH]c1` [Example 198, 3-cyano-N-[(1S)-1-(2,6-difluorophenyl)-2-hydroxyethyl]-4-(1H-pyrazol-4-yl)benzamide], the IC50 on ROCK1 was 397 nM; against ROCK2, 140 nM.

As to `COc1cc(-c2cn[nH]c2)ccc1C(=O)NC(CN)Cc1ccccc1` (stereo not shown) [Example 233, N-(1-amino-3-phenylpropan-2-yl)-2-methoxy-4-(1H-pyrazol-4-yl)benzamide], the concentration for half-maximal inhibition (IC50) on ROCK1 was 4.6 nM; on ROCK2, 2.53 nM.

`Cc1cc(C(=O)NCc2cccc(C(=O)O)c2)ccc1-c1cn[nH]c1` [Example 239, 3-({[3-methyl-4-(1H-pyrazol-4-yl)phenyl] formamido}methyl) benzoic acid]: the half-maximal inhibitory concentration (IC50) against ROCK1 was determined as 61.4 nM; against ROCK2 it was 11.5 nM.

As to `COc1cc(C(=O)NCc2cccc(F)c2)ccc1-c1cn[nH]c1` [Example 17, N-(3-fluorobenzyl)-3-methoxy-4-(1H-pyrazol-4-yl)benzamide], the IC50 on ROCK1 came out at 8.42 nM; against ROCK2, 4.01 nM.

In the case of `COc1cc(C(=O)NC(CN2CCOCC2)c2ccccc2)ccc1-c1cn[nH]c1` (stereo not shown) [Example 10, 3-methoxy-N-(2-morpholino-1-phenylethyl)-4-(1H-pyrazol-4-yl)benzamide], the IC50 was determined as 107 nM against ROCK1 and 44.5 nM against ROCK2.

In the case of `COc1cc(C(=O)N[C@@H](c2c(F)cccc2F)C(O)CO)ccc1-c1cn[nH]c1` (stereo partly drawn) [Example 175, N-[(1S)-1-(2,6-difluorophenyl)-2,3-dihydroxy-propyl]-3-methoxy-4-(1H-pyrazol-4-yl)benzamide], the values for the half-inhibitory concentration (IC50) against ROCK1 and on ROCK2 were 34.9 nM and 19.3 nM, respectively.

`COc1cc(C(=O)NC2(c3ccccc3)CCC2)ccc1-c1cn[nH]c1` [Example 222, 3-methoxy-N-(1-phenyl-cyclobutyl)-4-(1H-pyrazol-4-yl)benzamide]: the IC50 was 146 nM against ROCK1 and 26 nM against ROCK2.

As usually defined, the IC50 is the midpoint of a concentration-inhibition curve. Read a low IC50 as inhibition by little substance.
